In brackets after ≈: the same amount, converted by molar mass. Where two headings read alike, the source gives them in different places.
What was measured:
[1] = tested on: S. aureus FDA209P (ATCC 6538P); experiment: microbe, parasite or virus in culture; assay type: cell-based, Staphylococcus aureus; details: for MIC: Staphylococcus aureus
Method: (§1) S. aureus Mu50 (refer to Hiramatsu, K., Hanaki H., et al., J. Antimicrob. Chemother., 1997, 40(1), 135-6) or S. aureus FDA209P (ATCC 6538P) was cultured overnight at 37° C. in 4 mL of TBS (Tryptical Soy Broth, produced by Becton Dickinson) with shaking. After completion of the culture, the cells were suspended in fresh TBS to prepare a cell suspension showing an absorbance of 0.3 at 578 nm. Then, the cell suspension was diluted 500 times with CAMHB mentioned above.
(§2) CAMHB containing each test compound at each of the aforementioned concentrations was added to each well of a 96-well plate in a volume of 50 μL/well, the aforementioned cell suspension diluted 500 time was added to the well in a volume of 50 μL/well, and stationary culture was carried out overnight at 37° C.
(§3) MIC values (mg/L) of the flavones and quinolones against the strains were measured in the same manner as that of the measurement of MIC of Example 1, except that CAMHB containing each of the aforementioned flavones and quinolones prepared in Example 2 was used instead of CAMHB containing each of the test compounds.
(§4) MIC values of the flavones and quinolone for the strains were measured in the same manners as those of Example 1, except that S. aureus Mu50 NR-1 was also used as Staphylococcus aureus in addition to S. aureus FDA209P and S. aureus Mu50, cell suspensions of the strains were prepared.
(§5) In the same manner as that of Example 1, MIC values of M-246, M-21, J-Q21, and J-Q12.1 for Staphylococcus aureus were measured. M-246 and M-21 were obtained as commercial products, and as J-Q21 and J-Q12.1, those synthesized in Examples 6 and 7 were used.

S. aureus Mu50 = experiment: microbe, parasite or virus in culture; assay type: cell-based, Staphylococcus aureus; details: for MIC: Staphylococcus aureus; for MIC (mg/L) Mu50: Example 1, Tables 1 to 10
Method: as §1, §2, §3, §4, §5

[2] = Example 1, Tables 1 to 10, read-out: MIC (mg/L) FDA209P
[3] = MU50, read-out: MIC (mg/L) Mu50, Example 1, Tables 1 to 10

Row | Molecule | MIC (mg/L) FDA209P ([1]; Example 1, Tables 1 to 10) | MIC [1, 2] | MIC (S. aureus Mu50; [3]) | MIC (mg/L) Mu50 (S. aureus Mu50) | also measured
1 | COc1ccc(-c2cc(=O)c3c(OC)c(OC)c(OC)c(OC)c3o2)cc1OC [compound 10] | 128 mg/L (≈ 318 µM) |  |  |  | 
2 | O=c1cc(-c2ccc(O)cc2)oc2c(C3CC3)c(O)cc(O)c12 [J-Q12.1, 8-Cyclopropyl-5,7-dihydroxy-2-(4-hydroxyphenyl)-chromen-4-one] |  |  |  |  | MIC ([1]; Example 8, Table 17, read-out: MIC FDA209P): 8 mg/L (≈ 25.8 µM); MIC (S. aureus Mu50; MU50, read-out: MIC Mu50, Example 8, Table 17): 8 mg/L (≈ 25.8 µM)
3 | COc1ccc(-c2cc(=O)c3c(O)c(O)c(O)cc3o2)cc1 [compound 34] |  | 128 mg/L (≈ 426 µM) | 128 mg/L (≈ 426 µM) |  | 
4 | COc1cc(O)c(CN2CC(C)CC(C)C2)c2oc(-c3ccccc3)cc(=O)c12 (stereo not drawn) [compound 49] | 128 mg/L (≈ 325 µM) |  |  | >128 mg/L | 
5 | COc1ccc(-c2cc(=O)c3c(OC)c(OC)c(OC)c(OC)c3o2)cc1 [compound 11] | >128 mg/L |  |  | >128 mg/L | 
6 | COc1ccc(-c2coc3cc(O)cc(O)c3c2=O)cc1OC [compound 117] |  | > 128 mg/L | > 128 mg/L |  | 
7 | COc1ccc2oc(-c3ccccc3)cc(=O)c2c1 [compound 16] | 128 mg/L (≈ 507 µM) |  |  | 128 mg/L (≈ 507 µM) | 
8 | O=c1c(-c2ccc(OC3OC(CO)C(O)C(O)C3O)cc2)coc2cc(O)cc(O)c12 (stereo not drawn) [compound 81] | >128 mg/L |  |  | >128 mg/L | 
9 | COc1ccc(-c2cc(=O)c3c(OC)c(OC)c(OC)cc3o2)cc1OC [compound 42] |  | > 128 mg/L | > 128 mg/L |  | 
10 | COc1cc(O)c(CN2CCCCC2C)c2oc(-c3ccccc3)cc(=O)c12 (stereo not drawn) [compound 52] | >128 mg/L |  |  | >128 mg/L | 
11 | CC(=O)Oc1cc(OC(C)=O)c2c(=O)c(-c3ccc4c(c3)OCCO4)c(C)oc2c1 [compound 77] | >128 mg/L |  |  | >128 mg/L | 
12 | CC(=O)Oc1ccc(-c2coc3cc(OC(C)=O)cc(OC(C)=O)c3c2=O)cc1 [compound 82] |  | > 128 mg/L | > 128 mg/L |  | 
13 | O=c1cc(-c2ccccc2)oc2ccc(O)cc12 [compound 13] | >128 mg/L |  |  | >128 mg/L | 
14 | COc1ccc(-c2coc3cc(OC(C)=O)cc(OC(C)=O)c3c2=O)cc1 [compound 72] |  | > 128 mg/L | > 128 mg/L |  | 
15 | COc1ccc(-c2coc3cc(O)c(OC)c(O)c3c2=O)cc1 [compound 94] |  | 128 mg/L (≈ 407 µM) | 128 mg/L (≈ 407 µM) |  | 
16 | COc1cc(-c2[o+]c3cc(O)cc(O)c3cc2O)cc(O)c1O [compound 131] | 128 mg/L |  |  | 128 mg/L | 
17 | CC1(CO)C=Cc2c(cc3occ(-c4ccc(O)cc4)c(=O)c3c2O)O1 (stereo not drawn) [compound 122] |  | > 128 mg/L | > 128 mg/L |  | 
18 | COc1cc(-c2[o+]c3cc(O)cc(O)c3cc2O)cc(OC)c1O [compound 130] | 128 mg/L |  |  | 128 mg/L | 
19 | COc1c2c(cc3occ(-c4ccc(O)cc4)c(=O)c13)OCO2 [compound 97] | 128 mg/L (≈ 410 µM) |  |  | 128 mg/L (≈ 410 µM) | 
20 | O=c1cc(-c2ccccc2)oc2cccc(O)c12 [compound 17] | 128 mg/L (≈ 537 µM) |  |  | 128 mg/L (≈ 537 µM) | 
21 | Cc1c(-c2ccccc2)oc2c(C(=O)OCCN3CCCCC3)cccc2c1=O [compound 55] |  | 128 mg/L (≈ 327 µM) | > 128 mg/L |  | 
22 | Cc1c(O)cc(O)c2c(=O)cc(-c3ccccc3)oc12 [compound 8] | >128 mg/L |  |  |  | 
23 | COc1cc2oc(-c3ccc(O)c(O)c3)cc(=O)c2c(O)c1OC [compound 31] |  | > 128 mg/L | > 128 mg/L |  | 
24 | O=C(O)C1OC(Oc2cc(O)c3c(=O)cc(-c4ccc(O)c(O)c4)oc3c2)C(O)C(O)C1O (stereo not drawn) [compound 62] | >128 mg/L |  |  | >128 mg/L | 
25 | O=c1cc(-c2ccccc2)oc2ccc3ccccc3c12 [compound 57] | 128 mg/L (≈ 470 µM) |  |  | 128 mg/L (≈ 470 µM) | 

Row | Molecule | MIC (mg/L) FDA209P ([1]; Example 1, Tables 1 to 10) | MIC [1, 2] | MIC (S. aureus Mu50; [3]) | MIC (mg/L) Mu50 (S. aureus Mu50) | also measured
26 | COc1cc(OC2OC(CO)C(O)C(O)C2O)c2c(=O)c(-c3ccc(O)cc3)coc2c1 (stereo not drawn) [compound 96] | 128 mg/L (≈ 287 µM) |  |  | 128 mg/L (≈ 287 µM) | 
27 | CC(=O)Oc1cc(OC(C)=O)c2c(=O)c(-c3ccc4c(c3)OCCO4)coc2c1 [compound 104] |  | 128 mg/L (≈ 323 µM) | 64 mg/L (≈ 161 µM) |  | 
28 | Cc1cc2c(cc1-c1c(C)oc3cc(O)cc(O)c3c1=O)OCCO2 [compound 87] | 64 mg/L (≈ 188 µM) |  |  | 128 mg/L (≈ 376 µM) | 
29 | O=c1cc(-c2ccc(O[C@@H]3O[C@H](CO)[C@@H](O)[C@H](O)[C@H]3O)c(O)c2)oc2cc(O)cc(O)c12 [compound 64] |  | > 128 mg/L | > 128 mg/L |  | 
30 | O=C(O)C1OC(Oc2ccc(-c3coc4cc(O)cc(O)c4c3=O)cc2)C(O)C(O)C1O (stereo not drawn) [compound 95] | 128 mg/L (≈ 287 µM) |  |  | >128 mg/L | 
31 | COc1cc(O)c(CN2CCCC(C)C2)c2oc(-c3ccccc3)cc(=O)c12 (stereo not drawn) [compound 53] | 128 mg/L (≈ 337 µM) |  |  |  | 
32 | COc1cc(OC)c2c(=O)c(-c3ccc(OC4OC(CO)C(O)C(O)C4O)cc3)coc2c1 (stereo not drawn) [compound 85] | >128 mg/L |  |  | >128 mg/L | 
33 | O=c1c(O)c(-c2ccccc2S(=O)(=O)O)oc2ccccc12 [compound 54] |  | 128 mg/L (≈ 402 µM) | 128 mg/L (≈ 402 µM) |  | 
34 | O.Oc1cc(O)c2c(c1)OC(c1ccc(O)c(O)c1)C(O)C2 (stereo not drawn) [compound 133, 3,3′,4′,5,7-Flavanpentol Hydrate] | 128 mg/L |  |  |  | MIC (mg/L) Mu50 (S. aureus Mu50; Hydrate): >128 mg/L
35 | O=c1c(-c2ccc(O[C@@H]3O[C@H](CO)[C@@H](O)[C@H](O)[C@H]3O)cc2)coc2cc(O)cc(O)c12 [compound 120] | >128 mg/L |  |  | >128 mg/L | 
36 | O=C(O)C1OC(Oc2ccc(-c3cc(=O)c4c(O)cc(O)cc4o3)cc2O)C(O)C(O)C1O (stereo not drawn) [compound 67] | 128 mg/L (≈ 277 µM) |  |  | 128 mg/L (≈ 277 µM) | 
37 | O=c1c(O)c(-c2ccccc2)oc2cc(O)c(O)c(O)c12 [M-21] |  |  |  |  | MIC FDA209P ([1]; Example 8, Table 17): 64 µg/mL (≈ 224 µM); MIC Mu50 (S. aureus Mu50; Example 8, Table 17): 16 µg/mL (≈ 55.9 µM)
38 | COc1ccc(-c2cc(=O)c3c(OC)c(OC)c(OC)cc3o2)cc1O [compound 39] |  | 128 mg/L (≈ 357 µM) | 128 mg/L (≈ 357 µM) |  | 
39 | COc1cc(OC)c2c(=O)c(-c3cc4c(cc3C)OCCO4)c(C)oc2c1 [compound 88] | 128 mg/L (≈ 347 µM) |  |  | >128 mg/L | 
40 | CC(=O)Oc1cc(OC(C)=O)c2c(=O)cc(-c3ccc(OC(C)=O)c(OC(C)=O)c3)oc2c1 [compound 36] |  | > 128 mg/L | > 128 mg/L |  | 
41 | COc1cc(O)c(CN(C)C)c2oc(-c3ccccc3)cc(=O)c12 [compound 47] |  | 128 mg/L (≈ 393 µM) | > 128 mg/L |  | 
42 | COc1cc2oc(-c3ccc(O)cc3)cc(=O)c2c(O)c1OC [compound 28] |  | > 128 mg/L | > 128 mg/L |  | 
43 | COc1cc(O)c2c(=O)c(-c3cc4c(cc3C)OCCO4)c(C)oc2c1 [compound 86] | >128 mg/L |  |  |  | 
44 | Cc1c(O)cc2oc(-c3ccc(O)c(O)c3)c(O)c(=O)c2c1O [compound 5] | 128 mg/L (≈ 405 µM) |  |  | 128 mg/L (≈ 405 µM) | 
45 | O=c1cc(-c2ccccc2)oc2c(O)c(O)ccc12 [compound 14] | 64 mg/L (≈ 252 µM) |  |  | 64 mg/L (≈ 252 µM) | 
46 | COc1cc(-c2oc3c(OC)c(OC)c(OC)c(OC)c3c(=O)c2OC)cc2c1OCO2 [compound 35] | >128 mg/L |  |  |  | 
47 | COc1c(O)cc2oc(-c3ccc(O)cc3)cc(=O)c2c1O [compound 26] |  |  |  |  | MIC ([1]; read-out: MIC (mg/L) FDA209P): > 128 mg/L
48 | 2-phenylchromen-4-one (2-phenyl-1-benzopyran-4-one) [No. 25, reference compound] |  |  |  |  | MIC (mg/L) Mu50 (S80F, S84L) (S. aureus Mu50; Example 3, Table 13): 64 mg/L
49 | CCc1oc2cc(O)cc(O)c2c(=O)c1-c1ccc(OC)cc1 [compound 90] |  | 128 mg/L (≈ 410 µM) |  |  | 
